# Source: patent US12319640B2, “Cyclic diones as herbicidal compounds” (SYNGENTA CROP PROTECTION AG, priority 2019, dated 2025)
# What was measured:
# Assay in all cases: Glasshouse herbicide test, pre- and post-emergence
# Format in all cases: in vivo
# [1] = system: Echinochloa crus-galli (ECHCG); settings: 250 g/h, evaluated after 13 days, five-point scale; for percentage damage caused to the plant, ECHCG POST: post-emergence; for percentage damage caused to the plant, ECHCG PRE: pre-emergence
# How it was run: (§1)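 Pots were sprayed 1 day (pre-emergence) or 8 days (post-emergence) after sowing at 250 g/h, formulated in acetone/water 50:50 with 0.5% Tween 20. Plants were grown in a glasshouse at 24/16 °C day/night, 14 h light and 65% humidity, then damage was scored after 13 days on a five-point scale (5=80-100% … 1=0-19%).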
# [2] = system: Lolium perenne (LOLPE); settings: 250 g/h, evaluated after 13 days, five-point scale; for percentage damage caused to the plant, LOLPE POST: post-emergence; for percentage damage caused to the plant, LOLPE PRE: pre-emergence
# How it was run: as §1
# [3] = system: Alopecurus myosuroides (ALOMY); settings: 250 g/h, evaluated after 13 days, five-point scale; for percentage damage caused to the plant, ALOMY POST: post-emergence; for percentage damage caused to the plant, ALOMY PRE: pre-emergence
# How it was run: as §1
# [4] = system: Avena fatua (AVEFA); settings: 250 g/h, evaluated after 13 days, five-point scale; for percentage damage caused to the plant, AVEFA POST: post-emergence; for percentage damage caused to the plant, AVEFA PRE: pre-emergence
# How it was run: as §1
# [5] = system: Setaria faberi (SETFA); settings: 250 g/h, evaluated after 13 days, five-point scale; for percentage damage caused to the plant, SETFA POST: post-emergence; for percentage damage caused to the plant, SETFA PRE: pre-emergence
# How it was run: as §1
Compound,"percentage damage caused to the plant, ECHCG POST [1]","percentage damage caused to the plant, ECHCG PRE [1]","percentage damage caused to the plant, LOLPE POST [2]","percentage damage caused to the plant, LOLPE PRE [2]","percentage damage caused to the plant, ALOMY POST [3]","percentage damage caused to the plant, ALOMY PRE [3]","percentage damage caused to the plant, AVEFA POST [4]","percentage damage caused to the plant, AVEFA PRE [4]","percentage damage caused to the plant, SETFA POST [5]","percentage damage caused to the plant, SETFA PRE [5]"
CC#Cc1cc(C)c(C2C(=O)CC3(CCC(NC(=O)CC#N)CC3)CC2=O)c(C)c1 (centres unmarked) [Compound 2.010],5 (5=80-100%),5 (5=80-100%),5 (5=80-100%),5 (5=80-100%),5 (5=80-100%),5 (5=80-100%),5 (5=80-100%),5 (5=80-100%),5 (5=80-100%),5 (5=80-100%)
CC#Cc1cc(C)c(C2C(=O)CC3(CCC(NC(=O)C(F)F)CC3)CC2=O)c(C)c1 (centres unmarked) [Compound 2.011],5 (5=80-100%),5 (5=80-100%),5 (5=80-100%),5 (5=80-100%),5 (5=80-100%),5 (5=80-100%),5 (5=80-100%),5 (5=80-100%),5 (5=80-100%),5 (5=80-100%)
CC#Cc1cc(C)c(C2C(=O)CC3(CCC(NC(=O)Nc4ccccn4)CC3)CC2=O)c(C)c1 (centres unmarked) [Compound 2.012],4 (4=60-79%),4 (4=60-79%),5 (5=80-100%),5 (5=80-100%),4 (4=60-79%),4 (4=60-79%),5 (5=80-100%),3 (3=40-59%),4 (4=60-79%),4 (4=60-79%)
CC#Cc1cc(C)c(C2C(=O)CC3(CCC(NC(=O)CCC#N)CC3)CC2=O)c(C)c1 (centres unmarked) [Compound 2.013],5 (5=80-100%),5 (5=80-100%),5 (5=80-100%),5 (5=80-100%),5 (5=80-100%),3 (3=40-59%),5 (5=80-100%),5 (5=80-100%),5 (5=80-100%),5 (5=80-100%)
CC#Cc1cc(C)c(C2C(=O)CC3(CCC(NC(=O)c4ccc(OC)nn4)CC3)CC2=O)c(C)c1 (centres unmarked) [Compound 2.014],5 (5=80-100%),5 (5=80-100%),5 (5=80-100%),5 (5=80-100%),5 (5=80-100%),5 (5=80-100%),5 (5=80-100%),5 (5=80-100%),5 (5=80-100%),5 (5=80-100%)
